Among the data in ChEMBL document CHEMBL1649185, “Antibacterial activity of ultrashort cationic lipo-beta-peptides” (2009) are MIC values, retold here.

Converted amounts (≈) assume the structure as drawn. Peptide text beside a SMILES is read from it. * marks the point of attachment. Lauroyl = CCCCCCCCCCCC(=O)*

Assay type in all cases: functional
For one test, the system named is Streptococcus pneumoniae. Nature of the test: Antimicrobial activity against Streptococcus pneumoniae ATCC 49619 […].
A further test relates to Acinetobacter baumannii. As to the kind of experiment: Antimicrobial activity against Acinetobacter baumannii CAN-ICU 63169 by […].
Test [1] relates to Staphylococcus epidermidis. Nature of the test: Antimicrobial activity against Staphylococcus epidermidis ATCC 14990 […].
The test system of test [2] is Pseudomonas aeruginosa. Nature of the test: Antimicrobial activity against Pseudomonas aeruginosa CAN-ICU 62308 […].
Test [3] concerns Stenotrophomonas maltophilia. As to the kind of experiment: Antimicrobial activity against Stenotrophomonas maltophilia CAN-ICU 62584 […].
Test [4] has as its system Escherichia coli. As to the kind of experiment: Antimicrobial activity against Escherichia coli CAN-ICU 61714 […].
The test system of test [5] is Staphylococcus aureus. Nature of the test: Antimicrobial activity against methicillin-resistant Staphylococcus aureus ATCC 33592 […].
The subject of test [6] is Escherichia coli. Nature of the test: Antimicrobial activity against Escherichia coli ATCC 25922 by […].
Test [7] relates to Escherichia coli. Nature of the test: Antimicrobial activity against Escherichia coli CAN-ICU 63074 […].
Test [8] deals with Staphylococcus aureus. Nature of the test: Antimicrobial activity against Staphylococcus aureus ATCC 29213 […].
For a further test, the system named is Klebsiella pneumoniae. Nature of the test: Antimicrobial activity against Klebsiella pneumoniae ATCC 13883 […].
Test [9] relates to Pseudomonas aeruginosa. As to the kind of experiment: Antimicrobial activity against Pseudomonas aeruginosa ATCC 27853 […].
Test [10] deals with Staphylococcus epidermidis. As to the kind of experiment: Antimicrobial activity against methicillin-resistant Staphylococcus epidermidis CAN-ICU 61589 […].
For another test, the system named is Enterococcus faecalis. As to the kind of experiment: Antimicrobial activity against Enterococcus faecalis ATCC 29212 […].
In another test the test system is Enterococcus faecium. As to the kind of experiment: Antimicrobial activity against Enterococcus faecium ATCC 27270 […].

Regarding GENTAMICIN, the minimal inhibitory concentration (MIC) was 4 µg/mL in the test on Streptococcus pneumoniae; 128 µg/mL in the test on Acinetobacter baumannii; 0.25 µg/mL in test [1]; 128 µg/mL in the test on Pseudomonas aeruginosa [2]; above 512 µg/mL in [3]; 128 µg/mL with Escherichia coli [4]. Besides, the MIC with Staphylococcus aureus [5] was found to be 2 µg/mL; in the test with Escherichia coli [6], 1 µg/mL; with Escherichia coli [7], 8 µg/mL; with Staphylococcus aureus [8], 1 µg/mL; against Klebsiella pneumoniae, 0.25 µg/mL; with Pseudomonas aeruginosa [9], 8 µg/mL. Further, the MIC in [10] is 32 µg/mL.

As for `CCCCCCCCCCCCCCCC(=O)N[C@H](CCCN)CC(=O)N[C@H](CCCN)CC(=O)N[C@H](CCCN)CC(=O)N[C@H](CCCN)CC(=O)O`, the MIC against Streptococcus pneumoniae stood at 128 µg/mL (≈ 166 µM); in the test on Acinetobacter baumannii, 256 µg/mL (≈ 333 µM); in test [1], 4 µg/mL (≈ 5.2 µM); in the test on Enterococcus faecalis it was 32 µg/mL (≈ 41.6 µM); against Pseudomonas aeruginosa [2] it was 128 µg/mL (≈ 166 µM); in test [3] it was 256 µg/mL (≈ 333 µM). Further, the minimum inhibitory concentration (MIC) was determined as 32 µg/mL (≈ 41.6 µM) in the test with Escherichia coli [4]; 16 µg/mL (≈ 20.8 µM) in the test with Staphylococcus aureus [5]; 16 µg/mL (≈ 20.8 µM) in the test on Escherichia coli [6]; 32 µg/mL (≈ 41.6 µM) against Escherichia coli [7]; 16 µg/mL (≈ 20.8 µM) with Staphylococcus aureus [8]; 128 µg/mL (≈ 166 µM) against Klebsiella pneumoniae. Also, the MIC against Pseudomonas aeruginosa [9] stood at 64 µg/mL (≈ 83.2 µM); against Enterococcus faecium, 16 µg/mL (≈ 20.8 µM); in [10], 4 µg/mL (≈ 5.2 µM).

As to `CCCCCCCCCCCCCCCC(=O)N[C@@H](CCCCN)C(=O)NCC(=O)NCC(=O)N[C@@H](CCCCN)C(=O)O`, the MIC against Streptococcus pneumoniae was determined as 128 µg/mL (≈ 204 µM); with Acinetobacter baumannii, 128 µg/mL (≈ 204 µM); in test [1], 4 µg/mL (≈ 6.38 µM); in the test on Enterococcus faecalis, 8 µg/mL (≈ 12.8 µM); in the test on Pseudomonas aeruginosa [2], 64 µg/mL (≈ 102 µM); in test [3], 128 µg/mL (≈ 204 µM). Further, the minimum inhibitory concentration (MIC) in the test on Escherichia coli [4] came out at 16 µg/mL (≈ 25.5 µM); against Staphylococcus aureus [5] it was 16 µg/mL (≈ 25.5 µM); with Escherichia coli [6] it was 16 µg/mL (≈ 25.5 µM); in the test on Escherichia coli [7], 16 µg/mL (≈ 25.5 µM); in the test with Staphylococcus aureus [8] it was 8 µg/mL (≈ 12.8 µM); against Klebsiella pneumoniae it was 64 µg/mL (≈ 102 µM). Besides, the minimal inhibitory concentration (MIC) amounted to 64 µg/mL (≈ 102 µM) in the test with Pseudomonas aeruginosa [9], 16 µg/mL (≈ 25.5 µM) in the test on Enterococcus faecium and 8 µg/mL (≈ 12.8 µM) in test [10].

Take `CCCCCCCCCCCC(=O)N[C@H](CCCN)CC(=O)N[C@@H](CC(=O)N[C@@H](CC(=O)N[C@H](CCCN)CC(=O)O)C(C)C)C(C)C`: the MIC was 128 µg/mL (≈ 187 µM) with Streptococcus pneumoniae; above 128 µg/mL against Acinetobacter baumannii; 16 µg/mL (≈ 23.4 µM) in test [1]; 64 µg/mL (≈ 93.7 µM) with Enterococcus faecalis; 128 µg/mL (≈ 187 µM) in the test with Pseudomonas aeruginosa [2]; 256 µg/mL (≈ 375 µM) in [3]. Also, the minimal inhibitory concentration (MIC) with Escherichia coli [4] amounted to 64 µg/mL (≈ 93.7 µM); with Staphylococcus aureus [5] it was 32 µg/mL (≈ 46.9 µM); with Escherichia coli [6], 64 µg/mL (≈ 93.7 µM); in the test on Escherichia coli [7] it was 64 µg/mL (≈ 93.7 µM); with Staphylococcus aureus [8], 32 µg/mL (≈ 46.9 µM); in the test with Klebsiella pneumoniae it was 256 µg/mL (≈ 375 µM). In addition, the minimal inhibitory concentration (MIC) against Pseudomonas aeruginosa [9] came to 128 µg/mL (≈ 187 µM); with Enterococcus faecium, 32 µg/mL (≈ 46.9 µM); in test [10], 32 µg/mL (≈ 46.9 µM).

On to `CCCCCCCCCCCC(=O)N[C@@H](CCCCN)C(=O)N[C@@H](CC(C)C)C(=O)N[C@@H](CC(C)C)C(=O)N[C@@H](CCCCN)C(=O)O` (Lauroyl-KLLK-OH), for which the MIC against Streptococcus pneumoniae is 128 µg/mL (≈ 187 µM); against Acinetobacter baumannii, above 64 µg/mL; in test [1], 16 µg/mL (≈ 23.4 µM); with Enterococcus faecalis it was 32 µg/mL (≈ 46.9 µM); in the test on Pseudomonas aeruginosa [2], 128 µg/mL (≈ 187 µM); in test [3] it was above 256 µg/mL. Further, the minimum inhibitory concentration (MIC) amounted to 128 µg/mL (≈ 187 µM) against Escherichia coli [4]; 16 µg/mL (≈ 23.4 µM) in the test on Staphylococcus aureus [5]; 128 µg/mL (≈ 187 µM) in the test on Escherichia coli [6]; 128 µg/mL (≈ 187 µM) in the test with Escherichia coli [7]; 16 µg/mL (≈ 23.4 µM) in the test with Staphylococcus aureus [8]; 256 µg/mL (≈ 375 µM) against Klebsiella pneumoniae. Also, the MIC with Pseudomonas aeruginosa [9] amounted to 128 µg/mL (≈ 187 µM); in the test with Enterococcus faecium it was 16 µg/mL (≈ 23.4 µM); in [10], 16 µg/mL (≈ 23.4 µM).

As to `CCCCCCCCCCCCCCCC(=O)N[C@@H](CCCCN)C(=O)NCC(=O)NCC(=O)N[C@H](CCCCN)C(=O)O`, the MIC in the test on Streptococcus pneumoniae was 128 µg/mL (≈ 204 µM); with Acinetobacter baumannii it was 64 µg/mL (≈ 102 µM); in test [1] it was 8 µg/mL (≈ 12.8 µM); in the test with Enterococcus faecalis, 16 µg/mL (≈ 25.5 µM); with Pseudomonas aeruginosa [2], 64 µg/mL (≈ 102 µM); in test [3], 64 µg/mL (≈ 102 µM). The MIC in the test on Escherichia coli [4] was found to be 64 µg/mL (≈ 102 µM); in the test on Staphylococcus aureus [5], 16 µg/mL (≈ 25.5 µM); against Escherichia coli [6] it was 16 µg/mL (≈ 25.5 µM); with Escherichia coli [7] it was 16 µg/mL (≈ 25.5 µM); with Staphylococcus aureus [8], 16 µg/mL (≈ 25.5 µM); in the test with Klebsiella pneumoniae, 64 µg/mL (≈ 102 µM). Further, the MIC in the test with Pseudomonas aeruginosa [9] turned out to be 64 µg/mL (≈ 102 µM); in the test with Enterococcus faecium it was 16 µg/mL (≈ 25.5 µM); in test [10] it was 8 µg/mL (≈ 12.8 µM).

For the molecule `CCCCCCCCCCCCCCCC(=O)N[C@H](CCCN)CC(=O)NCCC(=O)NCCC(=O)N[C@H](CCCN)CC(=O)O`, the MIC against Streptococcus pneumoniae was above 64 µg/mL; in the test on Acinetobacter baumannii, 256 µg/mL (≈ 391 µM); in test [1] it was 8 µg/mL (≈ 12.2 µM); in the test with Enterococcus faecalis, 32 µg/mL (≈ 48.9 µM); in the test with Pseudomonas aeruginosa [2], 128 µg/mL (≈ 195 µM); in test [3], above 128 µg/mL. In addition, the minimal inhibitory concentration (MIC) is 64 µg/mL (≈ 97.7 µM) in the test on Escherichia coli [4]; 32 µg/mL (≈ 48.9 µM) against Staphylococcus aureus [5]; 64 µg/mL (≈ 97.7 µM) against Escherichia coli [6]; 64 µg/mL (≈ 97.7 µM) in the test on Escherichia coli [7]; 64 µg/mL (≈ 97.7 µM) in the test with Staphylococcus aureus [8]; above 128 µg/mL with Klebsiella pneumoniae. For the same molecule, the figures for the minimal inhibitory concentration (MIC) (in the test on Pseudomonas aeruginosa [9]; in the test with Enterococcus faecium; in test [10]) were 256 µg/mL (≈ 391 µM), 32 µg/mL (≈ 48.9 µM) and 16 µg/mL (≈ 24.4 µM), respectively.
